From patent EP4342468A1, “TOLEBRUTINIB SALT AND CRYSTAL FORM THEREOF, PREPARATION METHOD THEREFOR, PHARMACEUTICAL COMPOSITION THEREOF, AND USE THEREOF” (Hangzhou Solipharma Co., Ltd., priority 2021, dated 2022)
Structures can show the parent of a compound that is named as a salt.

Legend:
Assay type in all cases: physicochemical
[1] = Stability study of the solid forms under long-term, accelerated, light and oxidation conditions (HPLC and XRPD); details: for Purity after placing / Purity after: HPLC; for Purity after placing: initial purity 99.46%; for Sample after placing / crystal form after storage: XRPD; for Purity after: initial purity 99.50%
Protocol: In this application, X-ray powder diffraction (XRPD) data were collected using a BrukerD8 Advance diffractometer; parameters are as follows: Cu radiation; wavelength: 1.54Å; Current voltage: 40KV, 40mA; Scan range: 3 to 40°2θ.
In this application, the HPLC parameters for chemical stability and solubility are as follows:
An appropriate amount of Form 2 of tolebrutinib monohydrochloride prepared in example 2-1 of this application was placed under long-term (25°C/60% RH/open), accelerated (40°C/75% RH/open), light (25°C/4500lx/closed), and oxidation (in a urea peroxide atmosphere) conditions. Table 1 Stability of Form 2 of tolebrutinib monohydrochloride
An appropriate amount of tolebrutinib monohydrochloride Form1 sample prepared in Example 3-1 of this application was taken and placed under long-term (25°C/60% RH/open) and accelerated (40°C/75% RH/open) conditions, HPLC and XRPD testing were regularly conducted. Table 2 Stability of Form 1 of tolebrutinib monohydrochloride

[2] = Crystal form before and after the tableting process (XRPD)
From the text: (§1) Following the formulation in Table 6, API, lactose hydrate, polyvinylpyrrolidone, hydroxypropyl cellulose, microcrystalline cellulose and magnesium stearate were mixed and compressed to obtain a tablet core. Subsequently, the tablet cores were coated with a solution/suspension for film coating. Table 6 Tablet formulations

[3] = Compressibility study (tablet compression, hardness, tensile strength); details: for hardness: radial breaking force, tablet hardness tester, main pressure 1.8 KN; for diameters / thicknesses: tablet, Φ7.5mm punch, mean main pressure 1.8 KN
Protocol: The tablet compression was conducted using a Tianxiang rotary tablet press. A circular punch with a diameter of 7.5 mm (Φ7.5mm), a filling depth of 17.9 mm and a mean main pressure of 1.8 KN were used. The tablets' radial breaking force (hardness, H) was measured using a tablet hardness tester. The tablets' diameter (D) and thickness (L) were measured using a vernier caliper. The tensile strength (T) of the powder was calculated using the formula T=2H/πDL*9.8. The results are shown in Table 5: Table 5 Compressibility of Form 2 of tolebrutinib monohydrochloride and Form 1 of tolebrutinib monohydrochloride

[4] = Dynamic vapor sorption (DVS) hygroscopicity
Protocol: In this application, dynamic moisture adsorption analysis (DVS) data and isothermal adsorption analysis data were obtained using a TA Instruments Q5000 TGA; parameters are as follows: temperature: 25°C; relative humidity range: 0%RH-80%RH; dm/dt =0.001%/min; equilibration time: 90min; gas: N2; sample pan: platinum pan.

[5] = Solubility in water (supersaturated solution, content by HPLC); details: for Solubility: 2 hours, monohydrochloride
From the text: In this application, the HPLC parameters for chemical stability and solubility are as follows: […]

[6] = Stability of the crystal form in tablets (XRPD before and after storage); details: 25°C/60% RH
Protocol: as §1
The tablets containg Form 2 of tolebrutinib monohydrochloride Form 2 tablets and Form 1 of tolebrutinib monohydrochloride were placed at 25°C/60% RH for 14 days, respectively. XRPD tests were performed before and after storage. The XRPD comparison plots before and after storage are shown in FIG. 26 and FIG. 27, respectively.

[7] = Stability study of the solid forms under long-term, accelerated, light and oxidation conditions (HPLC and XRPD); details: long-term (25°C/60%RH) and accelerated (40°C/75%RH) conditions for 14 days; XRPD
[8] = light (25°C/4500lx/closed) and oxidation (in a urea peroxide atmosphere) conditions
[9] = listed as Form 1 of monohydrochloride
[10] = light, 25°C/45001x/closed, 14 days
[11] = long-term (25°C/60%RH) and accelerated (40°C/75%RH) conditions for 14 days
[12] = oxidation, in a urea peroxide atmosphere, 14 days
[13] = listed as Form 2 of monohydrochloride

## C=CC(=O)N1CCC[C@@H](n2c(=O)n(-c3ccc(Oc4ccccc4)cc3)c3c(N)nccc32)C1 [Form 1 of tolebrutinib monohydrochloride, tolebrutinib monohydrochloride]
[1]; 25°C/60%RH/open, 10 months
  Purity after placing: 99.37%
  Sample after placing: Form 1 of monohydrochloride
[1]; 40°C/75%RH/open, 10 months
  Purity after placing: 98.63%
  Sample after placing: Form 1 of monohydrochloride
[1]; [8]
  time remaining stable: at least 14 days
[1]; long-term (25°C/60% RH/open) and accelerated (40°C/75% RH/open) conditions, monohydrochloride
  time remaining stable: at least 10 months
[1]; long-term and accelerated conditions for 10 months
  crystal form after storage: remains unchanged
[2]
  crystal form before and after the tableting process: remained unchanged
[3]; calculated with T=2H/πDL*9.8, listed as Form 1 of monohydrochloride
  tensile strength: 1.2 MPa
[3]; [9]
  hardness: 6.16 kg
  diameters: 7.49 mm
  thicknesses: 4.19 mm
[4]; between 20% RH to 80% RH at 25 °C
  DVS weight change: about 1.2%
[4]; humidity range of 0%RH to 80%RH
  weight gain (hygroscopicity): ~0.9%
[5]; listed as Form 1 of the monohydrochloride salt of tolebrutinib
  Solubility: approximately 8.3 mg/mL
[5]
  Solubility: 8260 µg/mL
[6]
  time crystal form remains stable in tablets / formulation with excipients: at least 14 days

## C=CC(=O)N1CCC[C@@H](n2c(=O)n(-c3ccc(Oc4ccccc4)cc3)c3c(N)nccc32)C1 [Form 2 of tolebrutinib monohydrochloride, tolebrutinib monohydrochloride]
[1]; 25°C/60%RH/open, 14 days
  Purity after: 99.26%
  Sample after placing: Form 2 of monohydrochloride
[1]; 40°C/75%RH/open, 14 days
  Purity after: 99.30%
  Sample after placing: Form 2 of monohydrochloride
[1]; [8]
  time remaining stable: at least 14 days
[1]; [10]
  Purity after: 99.35%
  Sample after placing: Form 2 of monohydrochloride
[1]; long-term (25°C/60% RH/open) and accelerated (40°C/75% RH/open) conditions, listed as Form 2 of monohydrochloride, monohydrochloride
  time remaining stable: at least 14 days
[1]; [11]
  crystal form after storage: remains unchanged
[1]; [12]
  Purity after: 99.07%
  Sample after placing: Form 2 of monohydrochloride
[2]
  crystal form before and after the tableting process: remained unchanged
[3]; calculated with T=2H/πDL*9.8, listed as Form 2 of monohydrochloride
  tensile strength: 1.0 MPa
[3]; [13]
  hardness: 5.33 kg
  diameters: 7.50 mm
  thicknesses: 4.23 mm
[4]; XRPD before and after DVS
  crystal form before and after DVS: remained unchanged
[5]; water, thermodynamic from solid
  solubility at 2 hours: ~7000 µg/mL
[6]
  time crystal form remains stable in tablets / formulation with excipients: at least 14 days

## C=CC(=O)N1CCCC(n2c(=O)n(-c3ccc(Oc4ccccc4)cc3)c3c(N)nccc32)C1.O=C(O)C=CC(=O)O (centres unmarked) [maleate Form 1, tolebrutinib maleate]
[1]; [11]
  crystal form after storage: remained the same crystalline form
[7]
  crystal form after storage: remains unchanged
